Measured values as given in PubChem BioAssay (NCI).
Values joined by “and” are separate entries in the source; they are usually repeats but may differ in a detail not shown here. Equal values may be shown once.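 In this assay, cells in 96-well plates receive the compound at five concentrations for 48 hours. Endpoints are linearly interpolated between the surrounding concentrations. Here, GI50 denotes the concentration required for 50% inhibition of growth. Definition used: TGI = concentration required for complete inhibition of growth.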

Each compound was assayed on MDA-MB-468 breast (assay: NCI tumour cell line growth inhibition, 48 h).
`COc1cc(C2c3cc4c(cc3OC(N3CCCCC3)C2C)OCO4)cc(OC)c1OC` (stereo unspecified) showed a GI50 of 3660 nM and a TGI of 30300 nM.
With `Cc1cccc(NC(=O)c2sc3nc4c(cc3c2N)CCCC4)c1` the GI50 was 1750 nM and the TGI was 44100 nM.
Compound `Cc1cc(C)c(CNC(=O)c2cc(-c3ccc(CN4CCOCC4)cc3)cc3c2cnn3C2CCCC2)c(=O)[nH]1` has a GI50 of 13900 nM and a TGI of 36200 nM.
`COC(=O)c1c2c(c[n+]([O-])c1C)C(=O)C=C(NCc1ccccc1)C2=O` showed a GI50 of 138 nM and a TGI of 371 nM.
With `CC#Cc1nc2ccccc2c(=O)[nH]1` the GI50 was 2360 nM and the TGI was 6040 nM.
With `CN(C)c1ccc2nc3ccc(=N)cc-3sc2c1` the GI50 was 3520 nM and the TGI was 13800 nM.
Compound `O=C1OCC2=C1C(c1cccc(F)c1)c1cc3c(cc1N2CCO)CCC3` (stereo unspecified) has a GI50 of 37.1 nM and a TGI of 1090 nM.
In the case of `NC(=O)c1cccc(-n2ccc3cc(NC(=O)Nc4ccc(N5CCOCC5)c(C(F)(F)F)c4)ccc32)n1`, the GI50 is reported as 2440 nM and the TGI is reported as 7530 nM.
With `CC(=O)OCC1OC(OC2=C(CC=C(C)C)C(=O)c3ccccc3C2=O)C(OC(C)=O)C(OC(C)=O)C1OC(C)=O` (stereo unspecified) the GI50 was 1580 nM and the TGI was 3680 nM.
Compound `COc1ccc2c(CCC(c3ccccc3)c3ccccc3)c3[n+](cc2c1OC)CCc1cc2c(cc1-3)OCO2` has a TGI of 228 nM.
In the case of `Nc1ccc2c(c1)Cc1cc(Cl)c(Cl)cc1-2`, the GI50 is reported as 1360 nM and the TGI is reported as 86400 nM.
`C=C(C)[C@@H]1CC[C@]2(CNCCO)CC[C@]3(C)[C@H](CC[C@@H]4[C@@]5(C)CCC(N)[C@@](C)(CO)[C@@H]5CC[C@]43C)[C@@H]12` (stereo partly specified) showed a GI50 of 1610 nM and a TGI of 3180 nM.
`CC(C)=CC(=O)OCC(=O)O[C@@H]1C[C@]2(C(C)C)O[C@@]1(C)[C@@H]1CC[C@@H](C)[C@H]1[C@@H]2OC(=O)/C=C/c1ccccc1` was tested, and the GI50 was 11400 nM and the TGI was over 82700 nM.
With `COc1cc(/C=C/C(=O)c2cc(OC)c(OC)c(OC)c2)ccc1Oc1nc2c(c(=O)n(C)c(=O)n2C)n1C` the GI50 was 1920 nM and the TGI was 3730 nM.
With `CCCCCCCCCCCCCCCCCCOP(=O)([O-])OC1CC[N+](C)(C)CC1` the GI50 was 3740 nM and the TGI was over 10000 nM.
`CCOC(=O)c1ccc2c(c1)c1c(C)c3ccncc3c(C)c1n2C` showed a GI50 of 1160 nM and a TGI of 2830 nM.
Compound `O=C1/C(=C\c2ccc(Br)cc2)CN(C(=O)c2ccccc2F)C/C1=C\c1ccc(Br)cc1` has a GI50 of 1690 nM and a TGI of 3690 nM.
Work on `CCN(CC)c1ccc(N=O)cc1` yielded a GI50 of 1720 nM and a TGI of 4390 nM.
In the case of `COc1cc(Nc2cc(C)nc(N3CCN(c4ccnc5cc(Cl)ccc45)CC3)n2)cc(OC)c1`, the GI50 is reported as 129 nM and the TGI is reported as 3200 nM.
With `CCN1CCN(c2cc(C)nc(N(CCCNc3ccnc4cc(Cl)ccc34)Cc3cccs3)n2)CC1` the GI50 was 1980 nM and the TGI was 5090 nM.
`CC1(C)CCC(S(=O)(=O)c2ccc3c(c2)/C(=N\O)c2cc(S(=O)(=O)N4CCN(c5ccc(F)cc5O)CC4)ccc2-3)CC1` showed a GI50 of 37.1 nM and a TGI of 134 nM.
`Cn1cc(C2=C(Sc3ccccc3)C(=O)NC2=O)c2ccccc21` gave a GI50 of 4940 nM and a TGI of 10400 nM.
`COc1cc2c3c(n(CCCN4CCCCC4)c(=O)c2cc1OC)-c1cc2c(cc1C3=O)OCO2` was tested, and the GI50 was 1490 nM and the TGI was 2860 nM.
For `O=C(N/N=C/c1ccc(Cl)s1)c1[nH]c2ccc(Br)cc2c1-c1ccccc1`, the GI50 was 286 nM and the TGI was 4200 nM.
`Nc1nc2c(c3cnccc13)C(c1cccc(Br)c1)Cc1cnccc1-2` (stereo unspecified) was tested, and the GI50 was 257 nM and the TGI was 808 nM.
In the case of `O=C1NC(=NCCc2cccs2)S/C1=C\c1ccc2ncccc2c1`, the GI50 is reported as 5530 nM and the TGI is reported as over 25000 nM.
`CC[C@]12C=CCN3CC[C@]4(C(=C(C(=O)OC)C1)Nc1cc(OC)c(OC(C)=O)cc14)[C@@H]32` gave a GI50 of 428 nM and a TGI of 20200 nM.
With `COc1cccc2c1C(=O)c1c(O)c3c(c(O)c1C2=O)C[C@@](O)(C(=O)CO)C[C@@H]3OC1CC(N)C(O)C(C)O1` (stereo partly specified) the GI50 was 59.9 nM and 58.9 nM and 97.1 nM and the TGI was 250 nM and 236 nM and 486 nM.
`CCCCCCCCCCCCC[N+](C)(C)Cc1ccccc1` was tested, and the GI50 was 213 nM and the TGI was 852 nM.
`COc1c(OCCCN2CCOCC2)ccc2c3n(c(=NC(=O)c4cnc(N)nc4)nc12)CCN3` was tested, and the GI50 was 21.2 nM and 27.9 nM and 38.9 nM and the TGI was 229 nM [middle of 4 runs].
In the case of `Cc1c(NC(=O)c2cc(C(N)=O)nc3cc(F)ccc23)c(C(F)(F)F)nn1Cc1ccc(C#N)cc1`, the GI50 is reported as 6580 nM and the TGI is reported as over 71900 nM.
In the case of `COc1cc(C(=O)/C=C/c2c(-c3cccs3)nc3sc(C)cn23)cc(OC)c1OC`, the GI50 is reported as 2230 nM and the TGI is reported as 8450 nM.
With `COc1ccc2c(c1)N(CCO)C1=C(C(=O)OC1)C2c1cc(OC)c(OC)c(OC)c1` (stereo unspecified) the GI50 was 12.3 nM and the TGI was 40.5 nM.
`COc1ccc(C2=C(c3cn(C)c4ccccc34)C(=O)NC2=O)cc1` gave a GI50 of 9840 nM and a TGI of over 25000 nM.
`CCOC(=O)c1c(NCC(=O)Nc2cccc([N+](=O)[O-])c2)sc(C(C)=O)c1C` was tested, and the GI50 was 1850 nM and the TGI was 4530 nM.
With `c1cc(N2CCCC2)c2nc(-c3[nH]ncc3Nc3ncnc4[nH]ccc34)[nH]c2c1` the GI50 was 66.1 nM and the TGI was 265 nM.
For `Cc1ncn(-c2ccc(/C=N/Nc3ccnc4cc(Cl)ccc34)cc2)c1C`, the GI50 was 1480 nM and the TGI was 3000 nM.
`CC(C)(C)c1[nH]nc2c1C(c1cc3ccccc3[nH]c1=O)Nc1cc(C(=O)Nc3ccc(Cl)cc3)ccc1N2` (stereo unspecified) gave a GI50 of 1360 nM and a TGI of 3080 nM.
`CC1=C(SCCC(=O)OCC(=O)NCCC[Te]c2ccccc2)C(=O)c2ccccc2C1=O` gave a GI50 of 1810 nM and a TGI of 3610 nM.
In the case of `CCOC(=O)c1cc(C(=O)c2ccc(Cl)cc2)n2ccc(-c3cc[n+](CC(=O)c4ccc(OC)cc4)cc3)cc12`, the GI50 is reported as 1840 nM and the TGI is reported as 3750 nM.
Work on `CC(C)(O)c1coc(S(=O)(=O)/N=C(\O)Nc2c3c(cc4c2CCC4)CCC3)c1` yielded a GI50 of over 100000 nM and a TGI of over 100000 nM.
